# Experimental data from US4341790A, “Pyrrolidinylalkylcarboxylic acid amide derivatives, their preparation and pharmaceutical compositions containing them” (A. Nattermann & Cie. GmbH, priority 1979, dated 1982).
# “Also recorded” adds a separate entry of the source. Like-named read-outs stand apart in the source and are kept apart here.
# How the values were obtained:
# male mice = format: in vivo
# Source text: (§1) 2. Prolongation of the cerebral survival time in the case of hypoxaemia caused by sub-atmospheric pressure.
# (§2) This neuropathological behaviour is induced in male mice by a progressive reduction of the pressure to 26.66 kPa in an observation chamber and is used as an indicator of the cerebral hypoxia period. It ends in the death of the experimental animal.
# [1] = Cerebral protection / vaso-active and metabolism-regulating properties (overall); format: in vivo, mice; conditions: in words
# Experimental: The following methods have been used to investigate the pharmacodynamic properties of the compounds according to the invention:
# 1. Prolongation of cerebral survival time under hypoxaemia caused by NaNO2.
# Starting from the results of Gibson and Blass (J. Neurochemistry 27, 1976), a cerebral hypoxia is produced in male mice by means of NaNO2 (225 mg/kg, subcutaneous). The cerebral hypoxia period is marked by a characteristic spasmodic behaviour and ends in the death of the experimental animals.
# as §1, §2
# 3. Protection against amnesia induced by electric shock.
# Starting from the results of Taber and Banuazizi (Psychopharmakologia 9, 1966), male mice are taught not to enter a certain compartment of the cage in order to avoid an electric shock. The response is extinguished by means of an electric shock administered via head electrodes (electric shock amnesia).
# thrombocytes = test: Inhibition of aggregation of thrombocytes; conditions: in words
# [2] = LD50 / toxicity and toleration; format: in vivo, mice; conditions: mouse, in vivo, mice
# mice = test: LD50 / toxicity and toleration; format: in vivo; conditions: in words
# [3] = Tranquillising properties; format: in vivo; conditions: in words
compound,measurement,setting,value
"O=C(CN1CCCC1=O)Nc1ccccc1 [PA, 2-oxo-1-pyrrolidinylacetic acid anilide, reference compound]",Sub-atmospheric pressure hypoxaemia,male mice; po,-
same,"activity / effectiveness (vaso-active, metabolism-regulating, cerebral protection)",[1],exhibits none of these effects
"Cc1cccc(C)c1NC(=O)CN1CCCC1=O [Example 6, 2-Oxo-1-pyrrolidinylacetic acid, 2,6-dimethylanilide]",effect of inhibiting aggregation of thrombocytes,thrombocytes,inhibiting aggregation of thrombocytes
same,LD50,"[2]; iv, administered intravenously",421 mg/kg
same,LD50,"[2]; po, administered orally",1770 mg/kg
same,toleration,mice,well tolerated; also recorded: good toleration
same,toxicity,mice,very low toxicity
same,Sub-atmospheric pressure hypoxaemia,male mice; po,+
same,"activity / effectiveness (vaso-active, metabolism-regulating, cerebral protection)",[1],highly active; also recorded: excellent activity
same,"activity / effectiveness (vaso-active, metabolism-regulating, cerebral protection)","[1]; listed as 2-Oxo-1-pyrrolidinylacetic acid-2,6-dimethylanilide",particularly effective
same,tranquillising properties,[3],good tranquillising properties
"CC(C)NCC(O)COc1cccc2ccccc12 (stereo not drawn) [Propranol, propranolol]",Sub-atmospheric pressure hypoxaemia,male mice; po,-
"C(=C\c1ccccc1)/CN1CCN(C(c2ccccc2)c2ccccc2)CC1 [Cinnarizine, cinnarizine]",Sub-atmospheric pressure hypoxaemia,male mice; po,-
"NC(=O)CN1CCCC1=O [Piracetam, piracetam]",Sub-atmospheric pressure hypoxaemia,male mice; po,+
"CC[C@]12CCCN3CCc4c(n(c5ccccc45)[C@@](O)(C(=O)OC)C1)[C@@H]32 [Vincamine, vincamine]",Sub-atmospheric pressure hypoxaemia,male mice; po,+
"Cc1ncc(CSSCc2cnc(C)c(O)c2CO)c(CO)c1O [Pyritinol, pyritinol]",Sub-atmospheric pressure hypoxaemia,male mice; po,-
"CN(C)CCOC(=O)COc1ccc(Cl)cc1 [Meclofenoxate, meclofenoxate]",Sub-atmospheric pressure hypoxaemia,male mice; po,-
"COc1ccc(Cc2nccc3cc(OC)c(OC)cc23)cc1OC [Papaverine, papaverine]",Sub-atmospheric pressure hypoxaemia,male mice; iv,-
